Reference: patent publication US12295997B2, “Prostate neoantigens and their uses” (Janssen Biotech, Inc., priority 2020, dated 2025)

B1: P19 (peptide, listed as Homo sapiens)
chain: WTPIPVLTRWPLPHPPPWRRATSCRMARSSPSATSGSSVRRRCSSLPSWVWNLAASTRPRSTPS

Test system: CD8+ and CD4+ T cells (autologous CD3+ Pan-T cells isolated from human normal PBMCs)
Assay: Exogenous autologous normal donor restimulation assay (15-mer overlapping peptide pools on CD1c+ dendritic cells, TNFα/IFNγ flow cytometry)
Assay type: cell-based
Settings: 15-mer overlapping peptide pool; for Maximum Fold Change Over Background CD4+ cells / Maximum Fold Change Over Background CD8+ cells / Maximum Frequency of TNFα/IFNγ Double Positive CD4+ T cells / Maximum Frequency of TNFα/IFNγ Double Positive CD8+ T cells: Table 25; for Maximum Fold Change Over Background CD4+ cells: TNFα+IFNγ+ CD4+ T cells; for Maximum Fold Change Over Background CD4+ cells / Maximum Fold Change Over Background CD8+ cells: highest fold change over negative control across normal donors; for Maximum Fold Change Over Background CD8+ cells: TNFα+IFNγ+ CD8+ T cells; for Maximum Frequency of TNFα/IFNγ Double Positive CD4+ T cells / Maximum Frequency of TNFα/IFNγ Double Positive CD8+ T cells: highest frequency across normal donors
How it was run: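 Readout was intracellular TNFα/IFNγ flow cytometry on live CD3+ CD8+ and CD4+ cells after day-11 peptide restimulation. Stimulators were CD1c+ dendritic cells loaded with overlapping 15-mer peptide pools (2.5–10 μg/mL), irradiated, and cultured 12 days with autologous normal-donor Pan-T cells plus IL-15/IL-2. A response counted when ≥3-fold over DMSO control and at least 0.01%.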

[1] = Table 28, additional neoantigens, highest across normal donors

Row | Molecule | Maximum Fold Change Over Background CD4+ cells | Maximum Fold Change Over Background CD8+ cells | Maximum Frequency of TNFα/IFNγ Double Positive CD4+ T cells | Maximum Frequency of TNFα/IFNγ Double Positive CD8+ T cells | Max. Fold Change over background CD4+ TNFαINFγ double positive DP [1] | Max. Fold Change over background CD8+ TNFαINFγ double positive DP [1] | Max. Frequency of CD4+ TNFαINFγ DP [1] | Max. Frequency of CD8+ TNFαINFγ DP [1]
1 | SLYHREKQLIAMDSAI (listed as Homo sapiens) [Neoantigen P22] | 18.16 | 1.56 | 0.075 | 0.025 |  |  |  | 
2 | YEAGMTLGEKFRVGNCKHLKMTRP (listed as Homo sapiens) [Neoantigen P82] | 4.44 | 2.92 | 0.17 | 0.09 |  |  |  | 
3 | YEAGMTLGGKILFFLFLLLPLSPFSLIF (listed as Homo sapiens) [Neoantigen P87] | 7.86 | 9.20 | 0.110 | 0.460 |  |  |  | 
4 | B1 |  |  |  |  | 6.67 | 4.76 | 0.16 | 0.15
